Columns and labels:
Format in all cases: protein-complex assay
[1] = target: Integrin alpha-V/beta-3 (Homo sapiens, UniProt P05106+P06756); experiment: Inhibition of vitronectin binding to human alphavbeta3 integrin receptor after 1 hr by competitive solid-phase binding ELISA
[2] = target: Integrin alpha-5/beta-1 (Homo sapiens, UniProt P05556+P08648); experiment: Inhibition of fibronectin binding to human alpha5beta1 integrin receptor after 1 hr by competitive solid-phase binding ELISA
[3] = target: Integrin alpha-IIb/beta-3 (Homo sapiens, UniProt P05106+P08514); experiment: Inhibition of fibrinogen binding to alpha2bbeta3 integrin receptor (unknown origin) after 1 hr by competitive solid-phase binding ELISA
[4] = target: Integrin alpha-V/beta-5 (Homo sapiens, UniProt P06756+P18084); experiment: Inhibition of vitronectin binding to alphavbeta5 integrin receptor (unknown origin) after 1 hr by competitive solid-phase binding ELISA
[5] = target: Integrin alpha-V/beta-6 (Homo sapiens, UniProt P06756+P18564); experiment: Inhibition of LAP binding to human alphavbeta6 integrin receptor after 1 hr by competitive solid-phase binding ELISA

Row | IC50 [1] [nM] | IC50 [2] [nM] | IC50 [3] [µM] | IC50 [4] [nM] | IC50 [5] [nM] | Structure (SMILES)
1 | 0.86 | 126 | > 10 | 227 | 20 | COc1ccnc(NCCCOc2ccc(C[C@@H](CC(=O)O)NC(=O)c3ccc(OC(C)C)cc3)cc2)c1
2 | 1.6 | 64.2 | – | – | – | COc1ccnc(NCCCOc2ccc(C[C@@H](CC(=O)O)NC(=O)c3ccc(F)cc3)cc2)c1
3 | 638 | > 10000 | – | – | – | COc1ccnc(NCCCOc2ccc(C[C@@H](CC(=O)NO)NC(=O)c3ccc(OC(C)C)cc3)cc2)c1
4 | 0.65 | 108 | > 10 | – | – | COc1ccnc(NCCCOc2ccc(C[C@@H](CC(=O)O)NS(=O)(=O)c3ccc(C)cc3)cc2)c1
5 | 110 | > 10000 | – | – | – | Cc1cccc(NCCCOc2ccc(C[C@@H](CC(=O)O)NC(=O)c3ccccc3)cc2)n1
6 | 75.1 | > 10000 | – | – | – | COc1ccnc(NCCCOc2ccc(C[C@@H](CC(=O)NO)NS(=O)(=O)c3ccc(C)cc3)cc2)c1
